pIC50: −log10 of the molar value.
Tests used:
[1] = biological target: T1, Caspase-1 (Homo sapiens, UniProt P29466); assay: Caspase-1 enzyme inhibition assay (Ac-YVAD-pNA substrate), IC50; assay type: biochemical
T1 construct: purchased Enzo Biosciences
T1 sequence (P29466 120-297 limits assumed): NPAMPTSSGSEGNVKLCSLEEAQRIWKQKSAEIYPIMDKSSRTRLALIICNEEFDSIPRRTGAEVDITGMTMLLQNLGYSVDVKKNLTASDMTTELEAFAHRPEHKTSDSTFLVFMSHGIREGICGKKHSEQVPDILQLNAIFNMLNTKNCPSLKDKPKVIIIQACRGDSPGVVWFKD
T1 sequence (P29466 317-404 limits assumed): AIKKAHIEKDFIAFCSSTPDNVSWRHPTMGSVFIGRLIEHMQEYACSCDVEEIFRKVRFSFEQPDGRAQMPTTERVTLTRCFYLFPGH
Description: (§1) Human caspases were purchased from Enzo Biosciences and used according to the manufacturer's instructions. An exemplary caspase assay, for Caspase-1, is provided below:
Caspase-1 was diluted to 10 U/μl in assay buffer consisting of 50 mM HEPES, pH 7.4, 100 mM NaCl, 0.1% CHAPS, 1 mM EDTA, 10% glycerol and 10 mM DTT.
45 μl of assay buffer was added into ½ volume microtiter plate. The plate was allowed to equilibrate to assay temperature. 5 μl of Caspase-1 (10 U/μl) was added to each appropriate well. Two 2 blank wells containing assay buffer alone without Caspase-1 were included on the plate.
The reaction was started by the addition of 50 μl Ac-YVAD-pNA substrate, for a final substrate concentration of 200 μM. The reaction was continuously monitored at 405 nm. The data was graphed as OD405 nm vs time, and the slope was determined over the linear portion of the curve. The rates in OD/min were converted to substrate/min using an extinction coefficient for p-nitroaniline of 10,500M-1 cm-1, and were adjusted for pathlength of sample. […]

[2] = biological target: T2, Caspase 7 (Homo sapiens, UniProt P55210); assay: Caspase 7 enzymatic inhibition assay, IC50; assay type: biochemical; conditions: read-out: Caspase 7 enzyme inhibition IC50
T2 construct: purchased Enzo Biosciences
T2 sequence (P55210 24-198 limits assumed): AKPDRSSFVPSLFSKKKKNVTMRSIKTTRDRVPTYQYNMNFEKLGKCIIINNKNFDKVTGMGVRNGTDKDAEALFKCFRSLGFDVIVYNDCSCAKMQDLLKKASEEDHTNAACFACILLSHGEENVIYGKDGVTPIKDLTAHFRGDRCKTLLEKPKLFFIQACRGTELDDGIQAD
T2 sequence (P55210 207-303 limits assumed): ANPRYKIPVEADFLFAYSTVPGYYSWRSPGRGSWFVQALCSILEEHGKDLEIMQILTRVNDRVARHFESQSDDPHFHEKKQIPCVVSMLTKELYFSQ
Description: as §1
(§2) Enzymatic assays were conducted for Caspase-3, 6 and 7 activity according to the manufacture's instructions.

[3] = system: IL-1β; assay: Inhibition of LPS-stimulated IL-1β in THP-1 cells (ELISA); assay type: cell-based, human; conditions: 10 micromolar; for inhibition at 10 µM: Homo sapiens, read-out: Percent Inhibition of IL1-β
Description: Compounds in the present invention were tested in THP-1 cells, a human monocyte cell line, to assess the inhibition of the inflammatory cytokine IL-1β. THP-1 cells (ATCC TIB-202) were grown in culture and seeded in 96 well plates at a concentration of 200,000 cells per well with a total volume of 150 μL. Plated cells were incubated overnight at 37 degrees C. under an atmosphere of 5% CO2. Media was removed from cells which were washed with PBS. Test compounds were diluted in DMSO stock solution and serially diluted appropriately for initial screening and IC50 determinations. LPS in serum free media (140 μL of […]) was added to each well to stimulate IL-1β production. IL-1β was measured by ELISA assay kit (R&D Systems) per the manufacturers instructions.
IC50 values for the inhibition of IL-1 in THP 1 cells were determined from dose response studies.

[4] = biological target: T3, Caspase-3 (Homo sapiens, UniProt P42574); assay: Caspase-3 enzymatic inhibition assay, IC50; assay type: biochemical; conditions: read-out: Caspase 3 enzyme inhibition IC50
T3 construct: purchased Enzo Biosciences
T3 sequence (P42574 29-175 limits assumed): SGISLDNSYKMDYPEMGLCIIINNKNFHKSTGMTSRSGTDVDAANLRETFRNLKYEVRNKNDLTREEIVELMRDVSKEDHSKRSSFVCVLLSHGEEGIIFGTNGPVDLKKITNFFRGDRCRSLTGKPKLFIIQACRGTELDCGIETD
T3 sequence (P42574 176-277 limits assumed): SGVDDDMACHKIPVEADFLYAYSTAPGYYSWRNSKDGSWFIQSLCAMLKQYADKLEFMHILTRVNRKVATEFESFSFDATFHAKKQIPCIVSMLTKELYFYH
Description: as §1, §2

[5] = biological target: T4, Caspase 6 (Homo sapiens, UniProt P55212); assay: Caspase 6 enzymatic inhibition assay, IC50; assay type: biochemical; conditions: read-out: Caspase 6 enzyme inhibition IC50
T4 construct: purchased Enzo Biosciences
T4 sequence (P55212 24-179 limits assumed): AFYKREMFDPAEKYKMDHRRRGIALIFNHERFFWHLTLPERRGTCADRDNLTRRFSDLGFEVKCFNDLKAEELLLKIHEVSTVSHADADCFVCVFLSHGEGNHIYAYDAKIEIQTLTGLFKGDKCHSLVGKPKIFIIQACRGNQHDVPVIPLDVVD
T4 sequence (P55212 194-293 limits assumed): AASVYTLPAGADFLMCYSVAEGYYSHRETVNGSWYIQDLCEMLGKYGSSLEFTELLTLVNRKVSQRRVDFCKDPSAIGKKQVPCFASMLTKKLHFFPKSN
Description: as §1, §2

[6] = system: Jurkat cells; assay: Prevention of Fas-induced apoptosis in Jurkat cells (WST-8); assay type: cell-based; conditions: Homo sapiens, 10 micromolar, read-out: % Prevention of Fas - induced Jurkat cell apoptosis at 10 micromolar
Description: Compounds of the present invention were evaluated in Jurkat cells, a human T-lymphocyte cell line, to evaluate compounds ability to inhibit apoptotic cell death. Jurkat cells, Clone E6-1 (ATCC TIB-152) were grown in culture maintain a cell density between 0.5-2 million cells/mL. Cells were tested for viability and countion with typan blue stain before use. Test compounds were addedd to 96 well plates and Jurkat cells were added at a concentration of approximately 100,000 cells per well and mixed thoroughly by action of pipetting. Plated cells were incubated for 1 hour at 37 degrees C. under an atmosphere of 5% CO2. Anti-Fas antibody was added and mixed by pipet action. Plates were incubated for 20 hours at 37 degrees C. under an atmosphere of 5% CO2. 10 microliters of thawed WST-8 solution was added to each well and incubated for 4 hours. Absorbance was measured at 450 nm and control reading at […] using a SpectraMax ID5 plate reader. Apoptotic cell death is executed by caspases 3, 7 and 6. Compounds that lack activity against these caspases will not prevent the death of Jurkat cells and is a functional test of selectivity for inflammatory over apoptotic caspases.
IC50 values to protect against Fas induced apoptosis and improve survival of Jurkat cells were determined from dose response studies.

| pIC50 [1] | pIC50 [2] | pIC50 [4] | pIC50 [5] | SMILES | inhibition at 10 µM [3] [%] | inhibition at 10 µM [6] [%] | Percent Inhibition of IL1-β [3] |
| --- | --- | --- | --- | --- | --- | --- | --- |
| ≥ 8.00 | 6.00 to 7.00 | ≤ 6.00 | ≤ 6.00 | C[C@H](NC(=O)C(=O)Nc1ccccc1C(C)(C)C)C(=O)N[C@@H](CCC(=O)O)C(=O)COc1c(F)c(F)cc(F)c1F [Example 11, (S)-4-((S)-2-(2-((2-(tert-Butyl)phenyl)amino)-2-oxoacetamido)propanamido)-5-oxo-6-(2,3,5,6-tetrafluorophenoxy)hexanoic acid] | > 90 | ≤ 10 |  |
| ≥ 8.00 | ≤ 6.00 | ≤ 6.00 | ≤ 6.00 | C[C@H](NC(=O)C(=O)Nc1cccc(F)c1)C(=O)N[C@@H](CCC(=O)O)C(=O)COc1c(F)c(F)cc(F)c1F [Example 18, (S)-4-((S)-2-(2-((3fluorophenyl)amino)-2-oxoacetamido)propanamido)-5-oxo-6-(2,3,5,6-tetrafluorophenoxy)hexanoic acid] | > 90 | ≤ 10 |  |
| ≥ 8.00 | ≤ 6.00 | ≤ 6.00 | ≤ 6.00 | O=C(O)CC[C@H](NC(=O)Cn1ccc2ccc(Cl)cc2c1=O)C(=O)COc1c(F)c(F)cc(F)c1F [Example 16, (S)-4-(2-(7-Chloro-1-oxoisoquinolin-2(1H)-yl)acetamido)-5-oxo-6-(2,3,5,6-tetrafluorophenoxy)hexanoic acid] | > 90 | ≤ 10 |  |
|  |  |  |  | C[C@H](NC(=O)C(=O)Nc1c(F)cccc1F)C(=O)N[C@@H](CC(=O)O)C(=O)COc1c(F)c(F)cc(F)c1F [IDN-7314, reference compound] |  |  | A (A > 90%) |
| ≥ 8.00 | ≤ 6.00 | ≤ 6.00 | ≤ 6.00 | C[C@H](NC(=O)C(=O)Nc1cccc2cccnc12)C(=O)N[C@@H](CCC(=O)O)C(=O)COc1c(F)c(F)cc(F)c1F [Example 36, (S)-5-oxo-4-((S)-2-(2-oxo-2-(quinolin-8-ylamino)acetamido)propanamido)-6-(2,3,5,6-tetrafluorophenoxy)hexanoic acid] |  |  |  |
| ≥ 8.00 | ≤ 6.00 | ≤ 6.00 | ≤ 6.00 | COc1ccccc1NC(=O)C(=O)N[C@@H](C)C(=O)N[C@@H](CCC(=O)O)C(=O)COc1c(F)c(F)cc(F)c1F [Example 22, (S)-4-((S)-2-(2-((2-methyoxyphenyl)amino)-2-oxoacetamido)propanamido)-5-oxo-6-(2,3,5,6-tetrafluorophenoxy)hexanoic acid] |  |  |  |
| ≥ 8.00 | ≤ 6.00 | ≤ 6.00 | ≤ 6.00 | C[C@H](NC(=O)C(=O)Nc1ccncc1)C(=O)N[C@@H](CCC(=O)O)C(=O)COc1c(F)c(F)cc(F)c1F [Example 37, (S)-5-oxo-4-((S)-2-(2-oxo-2-(pyridin-4-ylamino)acetamido)propanamido)-6-(2,3,5,6-tetrafluorophenoxy)hexanoic acid] |  |  |  |
| ≥ 8.00 | ≤ 6.00 | ≤ 6.00 | ≤ 6.00 | C[C@H](NC(=O)C(=O)Nc1ncccn1)C(=O)N[C@@H](CCC(=O)O)C(=O)COc1c(F)c(F)cc(F)c1F [Example 42, (S)-5-oxo-4-((S)-2-(2-oxo-2-(pyrimidin-2-ylamino)acetamido)propanamido)-6-(2,3,5,6-tetrafluorophenoxy)hexanoic acid] |  |  |  |
| ≥ 8.00 | ≤ 6.00 | ≤ 6.00 | ≤ 6.00 | C[C@H](NC(=O)C(=O)Nc1ccc(OC(F)(F)F)cc1)C(=O)N[C@@H](CCC(=O)O)C(=O)COc1c(F)c(F)cc(F)c1F [Example 34, (S)-5-oxo-4-((S)-2-(2-oxo-2-((4-(trifluoromethoxy)phenyl)amino)acetamido)propanamido)-6-(2,3,5,6-tetrafluorophenoxy) hexanoic acid] |  |  |  |
| ≥ 8.00 | ≤ 6.00 | ≤ 6.00 | ≤ 6.00 | C[C@H](NC(=O)C(=O)Nc1cccc(C(F)(F)F)c1)C(=O)N[C@@H](CCC(=O)O)C(=O)COc1c(F)c(F)cc(F)c1F [Example 26, (S)-5-oxo-4-((S)-2-(2-oxo-2-((3-(trifluoromethyl)phenyl)amino)acetamido)propanamido)-6-(2,3,5,6-tetrafluorophenoxy) hexanoic acid] |  |  |  |
| ≥ 8.00 | ≤ 6.00 | ≤ 6.00 | ≤ 6.00 | C[C@H](NC(=O)C(=O)Nc1ccc(C(F)(F)F)cc1)C(=O)N[C@@H](CCC(=O)O)C(=O)COc1c(F)c(F)cc(F)c1F [Example 27, (S)-5-oxo-4-((S)-2-(2-oxo-2-((4-(trifluoromethyl)phenyl)amino)acetamido)propanamido)-6-(2,3,5,6-tetrafluorophenoxy) hexanoic acid] |  |  |  |
| ≥ 8.00 | ≤ 6.00 | ≤ 6.00 | ≤ 6.00 | C[C@H](NC(=O)C(=O)Nc1ccccc1C#N)C(=O)N[C@@H](CCC(=O)O)C(=O)COc1c(F)c(F)cc(F)c1F [Example 32, (S)-4-((S)-2-(2-((2-cyanophenyl)amino)-2-oxoacetamido)propanamido)-5-oxo-6-(2,3,5,6-tetrafluorophenoxy)hexanoic acid] |  |  |  |
| ≥ 8.00 | ≤ 6.00 | ≤ 6.00 | ≤ 6.00 | C[C@H](NC(=O)C(=O)Nc1cccnc1)C(=O)N[C@@H](CCC(=O)O)C(=O)COc1c(F)c(F)cc(F)c1F [Example 40, (S)-5-oxo-4-((S)-2-(2-oxo-2-(pyridin-3-ylamino)acetamido)propanamido)-6-(2,3,5,6-tetrafluorophenoxy)hexanoic acid] |  |  |  |
| ≥ 8.00 | ≤ 6.00 | ≤ 6.00 | ≤ 6.00 | C[C@H](NC(=O)C(=O)Nc1cnc2ccccc2c1)C(=O)N[C@@H](CCC(=O)O)C(=O)COc1c(F)c(F)cc(F)c1F [Example 35, (S)-5-oxo-4-((S)-2-(2-oxo-2-(quinolin-3-ylamino)acetamido)propanamido)-6-(2,3,5,6-tetrafluorophenoxy)hexanoic acid] |  |  |  |

Reference: patent publication US11597703B2, “Caspase inhibitors and methods of use thereof” (Histogen Inc., priority 2019, dated 2023)
